Test results reported in paper PMC4129108, “The natural triterpene 3β,6β,16β-trihydroxy-lup-20(29)-ene obtained from the flowers of Combretum leprosum induces apoptosis in MCF-7 breast cancer cells” (BMC Complementary and Alternative Medicine, 2014).
Converted amounts (≈) assume the structure as drawn. “Also recorded” adds a separate entry of the source.

How the values were obtained:
[1] = test system: S. cerevisiae haploid strain XV185-14c; assay: Point and frameshift mutations and survival in XV185-14c haploid yeast; format: cell-based, Saccharomyces cerevisiae; conditions: for HIS1/10^7 survivors (locus-specific revertants) / HOM3/10^8 survivors (locus-specific revertants, frameshift) / LYS1/10^8 survivors (locus non-specific revertants) / Survival (%): XV185-14c, STAT cells treated in PBS; for Survival (%): 1 h 30°C
Procedure: (§1) Media, solutions and buffers were prepared according to Burke et al.. YPD medium (0.5% yeast extract, 2% peptone, 2% glucose) was used for routine growth. Synthetic medium SC (0.67% yeast nitrogen base, 0.1% ammonium sulfate, 2% glucose) supplemented with the appropriate amino acids and bases ([…]) was used for the detection of mutations.
(§2) Stationary phase (STAT) cultures were obtained by inoculation of a single colony into liquid YPD. We chose to work in the stationary phase of growth because this resembles most cells of multicellular organisms in important aspects: (i) most energy comes from mitochondrial respiration; (ii) the cells have left the active cell cycle and have entered the Go phase; and (iii) damage accumulates over time.
Cell cultures were grown as described above, exposed to TTHL in concentrations ranging from 10 to 500 μg/mL, and then incubated in PBS for 1 h at 30°C. Two alleles, his1-798 and lys1-1, were used to detect point mutagenesis. The suppressible ochre nonsense mutant allele lys1-1 can be reverted either by locus-specific sequence alteration (true reversion) or by a forward mutation in a suppressor gene. […] Survival was determined on SC medium (3–5 days, 30°C) and mutation induction (HIS, LYS or HOM revertants) on media lacking the appropriate amino acid (7–10 days, 30°C). Induction of reversion of point mutation to his1-798, ochre allele lys1-1, and frameshift mutation values were scored per number of surviving cells.

[2] = test system: HCT116 cell (colorectal carcinoma); assay: XTT cell viability assay, HCT116; format: cell-based, human; conditions: for IC50: Homo sapiens, HCT-116, XTT
Procedure: The human cell lines MCF-7 (breast adenocarcinoma), HepG2 (hepatoma), T24 (bladder cancer), CACO-2 (colorectal adenocarcinoma) and MRC5 (lung normal fibroblast) were obtained from the Rio de Janeiro Cell Bank (Rio de Janeiro, RJ, Brazil). The HCT116 cell (colorectal carcinoma), and HT29 cell (colorectal adenocarcinoma) were kindly provided by Dr. Annette K. Larsen (Institut National de la Santé et de la Recherche Médicale - INSERM, Paris, França). All cell lines except MCF-7 were grown in DMEM supplemented with 10% or 20% (for CACO-2) FBS, 100 units.mL^-1 penicillin and 100 μg.mL^-1 streptomycin at 37°C in a humidified atmosphere of 5% CO2. MCF-7 cells were maintained in RPMI-1640 supplemented with 20% FBS at the same conditions described above.
The cytotoxic potential of the TTHL was evaluated by the XTT assay in human tumor cell lines as well as in MRC5 normal fibroblasts. Cells (1 × 10^4 cells) were seeded on 96-well plates in growth medium and incubated overnight. Afterwards, TTHL (0.5, 1.0, 2.5, 5.0, and 10 μg/mL) was added to each well and incubated for 24, 48, 72, and 120 h. Mitoxantrone, a cytostatic anthracenedione that intercalates in DNA and increases the incidence of double-strand breaks by stabilizing the cleavable complex of topoisomerase II and DNA, was used as positive control. At the end of each treatment, cell viability was assessed according to the manufacturer’s instructions. Briefly, after discarding the medium, 1 mL of XTT labeling mixture was added to the cells and incubated for 2 h at 37°C. Absorbance was measured with a SpectraMax reader (Bio-Rad, USA) at a test wavelength of 492 nm (A492) and a reference wavelength of 690 nm (A690). The final result corresponds to A492-A690. The absorbance of negative control cells was set as 100% viability, and the values for treated cells were calculated as a percentage of the control.
The IC20, IC50, and IC80 values and their 95% confidence intervals (CI 95%) were obtained by nonlinear regression using GraphPad Prism v5 program (Intuitive Software for Science, San Diego, CA, USA). Selective index (SI) was calculated by IC50 in MRC5 cells/IC50 in tumoral cells. All experiments were independently repeated at least three times, with triplicate samples for each treatment. Results are expressed as means ± standard deviation (SD). Data were analyzed by one-way analysis of variance (ANOVA), and means were compared using Tukey test, with P ≤ 0.05 considered as statistically significant.

[3] = test system: S. cerevisiae EG110 (sod2Δ); assay: Yeast survival assay, EG110 (sod2Δ); format: cell-based, Saccharomyces cerevisiae; conditions: for survival (percentage in relation to negative control): STAT cells, 1 h in PBS 30°C
Procedure: as §1, §2
STAT cells (1 × 10^8 cells/mL) were exposed to TTHL (10–500 μg/mL) and incubated under growth conditions for 1 h in PBS at 30°C. Cells were then washed and treated with H2O2 (5 mM) in PBS for another hour. Suitable aliquots were plated in triplicate on solid YPD (2–3 days, 30°C) and colony-forming units were counted. Sensitivity was expressed as a percentage of survival in relation to the negative control (solvent).

MCF-7 cells = assay: Cell cycle distribution by flow cytometric analysis (PI); format: cell-based, human; conditions: MCF-7, 24 h
Procedure: Cells (2 × 10^5 cells/mL) were seeded on 6-well tissue culture plates, and grown for 1 day up to 70–80% confluence before treatment with the test substance. The TTHL was added to medium with FBS to obtain the different concentrations, and cells were treated at 37°C for 24 h in humidified atmosphere containing 5% CO2.
Cell cycle distribution determination analysis was performed as previously described. After treatment, cells were trypsinized, centrifuged and resuspended in ice-cold 70% ethanol, and left for 24 h at 4°C. Ethanol-fixed cells were centrifuged, washed with PBS and resuspended in buffer containing 0.2 mg/mL RNAse, 50 μg/mL PI and 0.1% Triton X-100, and incubated for 30 min at room temperature. Samples were analyzed on a FACS Calibur flow cytometer (Becton-Dikinson, San Fransisco, CA) using the CellQuest software. A total of 10,000 events were measured per sample. The data were analyzed to determine the percentage of cells at each phase of the cell cycle (sub-G1, G1, S and G2/M).

## C=C(C)[C@@H]1CC[C@@]2(C)[C@H]1[C@H]1CC[C@@H]3[C@@]4(C)CC[C@H](O)C(C)(C)[C@@H]4[C@H](O)C[C@@]3(C)[C@]1(C)C[C@@H]2O [TTHL, 3β,6β,16β-trihydroxy-lup-20(29)-ene]
[1]; 10 to 500 μg/mL, his1-798, lys1-1, hom3-10 loci
  mutagenicity in yeast strain XV185-14c (in words): induced mutagenicity; also recorded: only able to induce mutagenesis on the assessed loci at the highest concentration
[1]; 10 μg/mL
  HIS1/10^7 survivors (locus-specific revertants): 10.77 ± 4.40 /10^7 survivors
  HOM3/10^8 survivors (locus-specific revertants, frameshift): 6.11 ± 1.58 /10^8 survivors
  LYS1/10^8 survivors (locus non-specific revertants): 4.78 ± 0.63 /10^8 survivors
  Survival (%): 84.90%
[1]; 50 μg/mL
  HIS1/10^7 survivors (locus-specific revertants): 13.33 ± 1.10 /10^7 survivors
  HOM3/10^8 survivors (locus-specific revertants, frameshift): 8.80 ± 0.14 /10^8 survivors
  LYS1/10^8 survivors (locus non-specific revertants): 5.68 ± 2.22 /10^8 survivors
  Survival (%): 72.83%
[1]; 100 μg/mL
  HIS1/10^7 survivors (locus-specific revertants): 20.83 ± 1.80 /10^7 survivors
  HOM3/10^8 survivors (locus-specific revertants, frameshift): 8.49 ± 2.12 /10^8 survivors
  LYS1/10^8 survivors (locus non-specific revertants): 9.72 ± 0.55 /10^8 survivors
  Survival (%): 65.00%
[1]; 500 μg/mL
  HIS1/10^7 survivors (locus-specific revertants): 30.10 ± 0.21 /10^7 survivors
  HOM3/10^8 survivors (locus-specific revertants, frameshift): 11.15 ± 0.92 /10^8 survivors
  LYS1/10^8 survivors (locus non-specific revertants): 14.40 ± 3.40 /10^8 survivors
  Survival (%): 69.00%
[2]; HCT116, 24 h treatment
  IC50: 7.05 ± 0.21 µg/mL (≈ 15.4 µM)
[2]; HCT116, 48 h treatment
  IC50: 5.87 ± 0.04 µg/mL (≈ 12.8 µM)
[2]; HCT116, 72 h treatment
  IC50: 5.2 ± 0.28 µg/mL (≈ 11.3 µM)
[2]; HCT116, 120 h treatment
  IC50: 4.5 ± 0.29 µg/mL (≈ 9.81 µM)
[2]; IC50 in MRC5 cells/IC50 in HCT116, 24 h
  Selectivity index (SI): 1 X
[2]; IC50 in MRC5 cells/IC50 in HCT116, 48 h
  Selectivity index (SI): 1 X
[2]; IC50 in MRC5 cells/IC50 in HCT116, 72 h
  Selectivity index (SI): 1 X
[2]; IC50 in MRC5 cells/IC50 in HCT116, 120 h
  Selectivity index (SI): 1.5 X
[3]; TTHL 10 μg/mL
  survival (percentage in relation to negative control): 83.20 ± 3.68 %
[3]; TTHL 50 μg/mL
  survival (percentage in relation to negative control): 72.90 ± 7.07 %
[3]; TTHL 100 μg/mL
  survival (percentage in relation to negative control): 62.25 ± 3.32 %
[3]; TTHL 500 μg/mL
  survival (percentage in relation to negative control): 56.65 ± 1.06 %
[3]; deficient in superoxide dismutase
  sensitivity of the strain to TTHL (in words): hypersensitive
MCF-7 cells; TTHL at IC20, IC50, IC80
  change in cell cycle progression: no significant change in cell cycle progression
MCF-7 cells; seen at IC50 and IC80, concentration-dependent
  sub-G1 population: significant increase in the sub-G1 population
